Test system: bacterial strain LF82 binding to the glycoprotein BSA-(Mannose)3
Assay: Bacterial Binding Assay (BBA)
Format: cell-based, Escherichia coli
Details: read-out: Bacterial Binding Assay IC50
Description: The purpose of the Bacterial Binding Assay (BBA) is to determine the inhibition activity of selective FimH antagonists on the bacterial strain LF82 binding to the glycoprotein BSA-(Mannose)3.
Below is a list of the Materials used to run the BBA are described below. • 1. LB broth: Supplier: Gibco, #10855 • 2. D-PBS: Supplier: Wisent, #311-425-CL • 3. LB agar plates • 4. 96-well black plate (high binding): Supplier: Costar, #3925 • 5. TopSeal™-A adhesive sealing films; Supplier PerkinElmer, #6005185 • 6. Carbonate-bicarbonate buffer pH 9.6 tablets, Supplier: Medicago, #09-8922-24 • 7. Water, Supplier: Gibco, #15230-162 • 8. Bovine serum albumin (BSA): Supplier: Sigma, #A-7888 • 9. (Man)-3-BSA (α1-3, α1-6 Mannotriose-BSA, 1 mg), V-Labs, #NGP1336, lot#HGDX37-169-1 • 10. Tween 20: Supplier: Sigma, #P9416 • 11. Bright-Glo Luciferase Assay System: Supplier: Promega, #E2610 • 12. LF82/Luciferase strain: Invasive ability of an Escherichia coli strain isolated from the ileal mucosa of a patient with Crohn's disease. Boudeau J, Glasser A L, Masseret E, Joly B, Darfeuille-Michaud A, Infect Immun. 1999, 67(9), 4499-509
Solutions and buffers used to run the BBA are described below. • 1. 0.04M carbonate-bicarbonate buffer (coating buffer) • 2. […] 1 mg of (Man)-3-BSA in 25 mL of water. • 3. 4000 ng/mL BSA • 4. 40 ng/mL BSA • 5. 1 μg/mL BSA-(Man)3: 150 μL of 40 ng/mL BSA-(Man)3+5.85 mL of 40 ng/mL BSA • 6. 0.5 μg/mL BSA-(Man)3 in 0.02M carbonate-bicarbonate buffer. • 7. 20 ng/mL BSA in 0.02M carbonate-bicarbonate buffer • 8. Blocking buffer (2% BSA/DPBS): 1 g of BSA in 50 mL D-PBS • 9. 2× binding buffer (0.2% BSA/D-PBS): 5 mL of blocking buffer+45 mL D-PBS. • 10. Washing buffer (D-PBS/0.01% Tween 20): 10 μL of Tween 20 in 100 mL D-PBS. • 11. 1× Bright-Glo Luciferase substrate:Dilute 1:1 the Bright-Glo Luciferase Assay System with D-PBS The experimental protocol to run the BBA is described below.
Overnight culture of LF82/Luciferase strain: Into two Falcon 50 mL tubes, add 20 mL of LB+20 μL of 50 mg/mL Kanamycin and inoculate with a loop from glycerol stock of the LF82/Luciferase strain. Incubate overnight at 37° C. with no shaking.
Glycoprotein coating of 96-well plates: Add 100 μL/well of 0.5-2 μg/mL BSA-(Man)3. 20 μg/mL BSA is used as the control background. Seal plate using an adhesive sealing film and incubate overnight at room temperature. Wash the 96-well plate three times with 150 μL/well of D-PBS, add 170 μL/well of blocking solution and incubate 45 min (minimum) at room temperature.
Preparation of bacterial suspension: Mix the two cultures tubes (40 mL) and perform a 1:10 dilution in LB (900 μl LB+100 μl culture. Measure optical density (OD) of the bacterial cultures. OD1 ˜5×10^8 cells/mL. Centrifuge LF82 culture for 20 min at 3500 rpm at room temperature. Re-suspend bacterial pellet in D-PBS and centrifuge again for 20 min at 3500 rpm. Re-suspend bacterial pellet in D-PBS to obtain a bacterial concentration of 2×10^9 bacteria/mL. Dilute 1/10 in D-PBS to obtain a final bacterial concentration of 2×10^8 bacteria/mL (=107 bacteria/50 μL). Perform 1/10 serial dilutions in LB of each bacterial suspension, plate 10 μL of dilutions on LB agar plates (final dilutions of 10^−7) and incubate overnight at 37° C. and count CFUs to determine the actual bacteria density in the assay.
Bacterial binding assay: Add 147 μL 2× binding buffer to compound plate (containing 3 μL of compound). After blocking step is performed (at least 45 min), wash plates three times with 200 μL/well of D-PBS. With a 100 μL multichannel manual pipettor, add 50 μL/well of compound diluted in 2× binding buffer. With a 100 μL multichannel manual pipettor, add 50 μL/well of bacterial suspension. Agitate at slow speed for 1 min and incubate 40-75 min at room temperature. Wash 5 times with 150 μL/well of washing buffer and then once with D-PBS. Add 100 μL/well of 1× Bright-Glo Luciferase substrate. […]

Row | Structure (SMILES) | IC50 [nM]
1 | OC[C@H]1O[C@@]2(CCc3cc(-c4cncc(-c5ccc6c(c5)CC[C@]5(O6)O[C@H](CO)[C@@H](O)[C@H](O)[C@@H]5O)c4)ccc3O2)[C@@H](O)[C@@H](O)[C@@H]1O [Example 129, (2R,3′S,4′S,5′S,6′R)-6′-(hydroxymethyl)-6-[5-[(2R,3′S,4′S,5′S,6′R)-3′,4′,5′-trihydroxy-6′-(hydroxymethyl)spiro[chromane-2,2′-tetrahydropyran]-6-yl]-3-pyridyl]spiro[chromane-2,2′-tetrahydropyran]-3′,4′,5′-triol] | 11 ± 6
2 | Cc1cc(-c2ccc(F)c(C(=O)N3CCCC3)c2)ccc1O[C@H]1O[C@H](CO)[C@@H](O)[C@H](O)[C@]1(C)O [Compound 85] | 30 ± 8
3 | CNC(=O)c1cccc(-c2ccc(O[C@H]3O[C@H]([C@@H](O)C(C)C)[C@@H](O)[C@H](O)[C@@H]3O)c(C)c2)c1 [Compound 30] | > 10000
4 | Cc1cc(-c2ccc(F)c(C(=O)N3CCOCC3)c2)ccc1O[C@H]1O[C@H](CO)[C@@H](O)[C@H](O)[C@]1(C)O [Compound 102] | 24 ± 5
5 | Cc1cc(-c2cccc(C(=O)N(C)C)c2)ccc1O[C@H]1O[C@H](CO)[C@@H](O)[C@H](O)[C@]1(C)O [Compound 83] | 19 ± 6
6 | Cc1cc(-c2cc(F)cc(C(=O)N3CCOCC3)c2)ccc1O[C@H]1O[C@H](CO)[C@@H](O)[C@H](O)[C@]1(C)O [Compound 103] | 18 ± 8
7 | COc1ccc2c(c1)CC[C@]1(O2)O[C@H](CO)[C@@H](O)[C@H](O)[C@@H]1O [compound 32] | 333 ± 100
8 | C[C@H](O)[C@H]1O[C@H](Oc2ccc(N3CCc4cc([N+](=O)[O-])ccc43)cc2Cl)[C@@H](O)[C@@H](O)[C@@H]1O [compound 28] | 1300
9 | C[C@@]1(O)[C@@H](Oc2ccc(-c3ccc(O[C@H]4O[C@H](CO)[C@@H](O)[C@H](O)[C@]4(C)O)c(OC(F)(F)F)c3)cc2OC(F)(F)F)O[C@H](CO)[C@@H](O)[C@@H]1O [Example 114, (2R,3S,4S,5S,6R)-6-(hydroxymethyl)-3-methyl-2-[2-(trifluoromethoxy)-4-[3-(trifluoromethoxy)-4-[(2R,3S,4S,5S,6R)-3,4,5-trihydroxy-6-(hydroxymethyl)-3-methyl-tetrahydropyran-2-yl]oxy-phenyl]phenoxy]tetrahydropyran-3,4,5-triol] | 1 ± 1
10 | COc1c(F)cccc1-c1ccc(O[C@H]2O[C@H](CO)[C@@H](O)[C@H](O)[C@]2(C)O)c(C)c1 [Compound 90] | 83 ± 3
11 | C[C@@]1(O)[C@@H](Oc2ccc(-c3ccc(O[C@H]4O[C@H](CO)[C@@H](O)[C@H](O)[C@]4(C)O)c(Cl)c3)cc2Cl)O[C@H](CO)[C@@H](O)[C@@H]1O [Example 107, (2R,3S,4S,5S,6R)-2-[2-chloro-4-[3-chloro-4-[(2R,3S,4S,5S,6R)-3,4,5-trihydroxy-6-(hydroxymethyl)-3-methyl-tetrahydropyran-2-yl]oxy-phenyl]phenoxy]-6-(hydroxymethyl)-3-methyl-tetrahydropyran-3,4,5-triol] | 5 ± 1
12 | CNC(=O)c1cccc(-c2ccc3c(c2)CC[C@]2(O3)O[C@H](CO)[C@@H](O)[C@H](O)[C@@H]2O)c1 [compound 33] | 27 ± 8
13 | COc1c(F)cc(-c2ccc(O[C@H]3O[C@H](CO)[C@@H](O)[C@H](O)[C@]3(C)O)c(C)c2)cc1F [Compound 98] | 16 ± 7
14 | Cc1cc(-c2cccc(C(=O)NCCN3CCOCC3)c2)ccc1O[C@H]1O[C@H](CO)[C@@H](O)[C@H](O)[C@]1(C)O [Compound 63] | 12 ± 3
15 | Cc1cc(-c2cccc(C(=O)N[C@H]3[C@H](O)[C@@H](CO)OC(O)[C@@H]3O)c2)ccc1O[C@H]1O[C@H](CO)[C@@H](O)[C@H](O)[C@]1(C)O (some centres unmarked) [Compound 65] | 20 ± 8
16 | Cc1cc(-c2cccc(C(=O)NCCOCCOCCN)c2)ccc1O[C@H]1O[C@H](CO)[C@@H](O)[C@H](O)[C@]1(C)O [Compound 22] | 15 ± 4
17 | Cc1cc(-c2cc(Cl)ccc2F)ccc1O[C@H]1O[C@H](CO)[C@@H](O)[C@H](O)[C@]1(C)O [Compound 77] | 150
18 | CNC(=O)c1cccc(-c2ccc(O[C@H]3O[C@H](CO)[C@@H](O)[C@H](O)[C@@]3(O)COCCO)c(C)c2)c1 [Compound 50] | 830 ± 170
19 | CNC(=O)c1cccc(-c2cccc(O[C@H]3O[C@H](CO)[C@@H](O)[C@H](O)[C@]3(C)O)c2Cl)c1 [Compound 46] | 126 ± 38
20 | CNC(=O)c1cccc(-c2ccc(O[C@H]3O[C@H](CO)[C@@H](O)[C@](C)(O)[C@@H]3O)c(C)c2)c1 [compound 25] | 68 ± 18
21 | CCc1cc(-c2ccc(O[C@H]3O[C@H](CO)[C@@H](O)[C@H](O)[C@]3(C)O)c(CC)c2)ccc1O[C@H]1O[C@H](CO)[C@@H](O)[C@H](O)[C@]1(C)O [Example 110, (2R,3S,4S,5S,6R)-2-[2-ethyl-4-[3-ethyl-4-[(2R,3S,4S,5S,6R)-3,4,5-trihydroxy-6-(hydroxymethyl)-3-methyl-tetrahydropyran-2-yl]oxy-phenyl]phenoxy]-6-(hydroxymethyl)-3-methyl-tetrahydropyran-3,4,5-triol] | 3 ± 1
22 | Cc1cc(-c2cccc(C(=O)NC[C@H]3OC(O)[C@H](O)[C@@H](O)[C@@H]3O)c2)ccc1O[C@H]1O[C@H](CO)[C@@H](O)[C@H](O)[C@]1(C)O (some centres unmarked) [Compound 64] | 20 ± 0.5
23 | Cc1cc(-c2cccc(-c3ccc(O[C@H]4O[C@H](CO)[C@@H](O)[C@H](O)[C@]4(C)O)c(C)c3)c2)ccc1O[C@H]1O[C@H](CO)[C@@H](O)[C@H](O)[C@]1(C)O [Example 120, (2R,3S,4S,5S,6R)-6-(hydroxymethyl)-3-methyl-2-[2-methyl-4-[3-[3-methyl-4-[(2R,3S,4S,5S,6R)-3,4,5-trihydroxy-6-(hydroxymethyl)-3-methyl-tetrahydropyran-2-yl]oxy-phenyl]phenyl]phenoxy]tetrahydro-pyran-3,4,5-triol] | 3 ± 2
24 | C[C@@]1(O)[C@@H](Oc2ccc(-c3ccc(O[C@H]4O[C@H](CO)[C@@H](O)[C@H](O)[C@]4(C)O)c(F)c3)cc2F)O[C@H](CO)[C@@H](O)[C@@H]1O [Example 112, (2R,3S,4S,5S,6R)-2-[2-fluoro-4-[3-fluoro-4-[(2R,3S,4S,5S,6R)-3,4,5-trihydroxy-6-(hydroxymethyl)-3-methyl-tetrahydropyran-2-yl]oxy-phenyl]phenoxy]-6-(hydroxymethyl)-3-methyl-tetrahydropyran-3,4,5-triol] | 68 ± 11
25 | CNC(=O)c1cccc(-c2ccc(O[C@H]3O[C@H]([C@H](C)O)[C@@H](O)[C@H](O)[C@@H]3O)c(C)c2)c1 [compound 27] | 165 ± 49
26 | CC(C)c1cc(-c2ccc(O[C@H]3O[C@H](CO)[C@@H](O)[C@H](O)[C@]3(C)O)c(C(C)C)c2)ccc1O[C@H]1O[C@H](CO)[C@@H](O)[C@H](O)[C@]1(C)O [Example 115, (2R,3S,4S,5S,6R)-6-(hydroxymethyl)-2-[2-isopropyl-4-[3-isopropyl-4-[(2R,3S,4S,5S,6R)-3,4,5-trihydroxy-6-(hydroxymethyl)-3-methyl-tetrahydropyran-2-yl]oxy-phenyl]phenoxy]-3-methyl-tetrahydropyran-3,4,5-triol] | 4 ± 0.6

Reference: patent US9890176B2, “Mannose derivatives for treating bacterial infections” (Vertex Pharmaceuticals Incorporated, priority 2013, dated 2018)
